Test results published in US20040142971A1, “BENZOTHIOPHENE COMPOUNDS HAVING ANTIINFECTIVE ACTIVITY” (GeneSoft, Inc., priority 2001, published 2004).

Legend:
Experiment in all cases: MIC, NCCLS broth microdilution
[1] = system: S. aureus ATCC 13709 (methicillin sensitive strain, MSSA); type: cell-based, Staphylococcus aureus; conditions: C = S. aureus ATCC 13709
Description: (§1) In vitro biological activity data were collected for a variety of microorganisms, including Bacillus cereus (ATCC 11778), Staphylococcus aureus (ATCC 27660 (a methicillin resistant strain (MRSA), ATCC 33591 and ATCC 43300); ATCC 13709, a methicillin sensitive strain (MSSA)); Streptococcus pneumoniae (ATCC 51422, a penicillin resistant strain (PRSP)), Enterococcus faecium (ATCC 51559, a vancomycin resistant strain (VRE)), and Staphylococcus epidermidis (ATCC 700586, a methycillin resistant strain (MRSE)). Additionally, antifungal activity data were collected for Candida albicans (ATCC 38247). Minimal inhibition concentrations (MIC's) were determined using the National Committee for Clinical Laboratory Standards (NCCLS) broth microdilution assay in microtiter plates, as set forth in: (1) the guidelines of the National Committee for Clinical Laboratory Standards (NCCLS) Document M7-A4 (NCCLS, 1997); (2) the guidelines of the National Committee for Clinical Laboratory Standards (NCCLS) Document M11-A4 (NCCLS, 1997); and (3) the guidelines and reference method of the National Committee for Clinical Laboratory Standards (NCCLS) Document M27-T (NCCLS, 1995). For antifungal essays, the method recommended in Murray, PR., 1995 Manual of Clinical Microbiology (ASM Press, Washington, D.C.), was employed.

[2] = system: S. aureus ATCC 27660 (methicillin resistant strain, MRSA); type: cell-based, Staphylococcus aureus; conditions: D = S. aureus ATCC 27660
Description: as §1

[3] = system: B. Cereus ATCC 11778; type: cell-based, Bacillus cereus; conditions: A = B. Cereus ATCC 11778
Description: as §1

[4] = system: S. aureus ATCC 33591; type: cell-based, Staphylococcus aureus; conditions: E = S. aureus ATCC 33591
Description: as §1

SMILES	Minimum Inhibitory Concentration (MIC) [1]	Minimum Inhibitory Concentration (MIC) [2]	Minimum Inhibitory Concentration (MIC) [3]	Minimum Inhibitory Concentration (MIC) [4]
Cn1cc(NC(=O)c2cc(NC(=O)c3sc4ccccc4c3Cl)cn2C)cc1C(=O)NCCN1CCC(O)CC1 [Ib-20a]	+++ (+++ = MIC ≦ 4)	+++ (+++ = MIC ≦ 4)	+++ (+++ = MIC ≦ 4)	–
Cn1cc(NC(=O)c2cc(NC(=O)c3cc(NC(=O)c4cc5ccccc5cn4)c[nH]3)cn2C)cc1C(=O)NCCN1CCC(F)(F)CC1 [Ib-78]	+++ (+++ = MIC ≦ 4)	+++ (+++ = MIC ≦ 4)	+++ (+++ = MIC ≦ 4)	+++ (+++ = MIC ≦ 4)
Cn1cc(NC(=O)c2cc3cc4c(cc3s2)OCO4)cc1C(=O)NCCN1CCCC1 [Ib-20x]	+++ (+++ = MIC ≦ 4)	+++ (+++ = MIC ≦ 4)	+++ (+++ = MIC ≦ 4)	+++ (+++ = MIC ≦ 4)
Cn1cc(NC(=O)c2cc3cc4c(cc3s2)OCO4)cc1C(=O)NCCN1CCSCC1 [Ib-20w]	+++ (+++ = MIC ≦ 4)	+++ (+++ = MIC ≦ 4)	+++ (+++ = MIC ≦ 4)	+++ (+++ = MIC ≦ 4)
Cn1cc(NC(=O)c2sc3cc4c(cc3c2Cl)OCO4)cc1C(=O)NCCN1CCC(F)(F)CC1 [Ib-20q]	+++ (+++ = MIC ≦ 4)	+++ (+++ = MIC ≦ 4)	>32 µg/mL	+++ (+++ = MIC ≦ 4)
Cn1cc(NC(=O)c2cc3ccccc3cn2)cc1C(=O)Nc1cc(C(=O)Nc2cn(C)c(C(=O)NCCN3CCOCC3)n2)n(C)c1 [Ib-58]	+++ (+++ = MIC ≦ 4)	+++ (+++ = MIC ≦ 4)	+++ (+++ = MIC ≦ 4)	+++ (+++ = MIC ≦ 4)
CN(C)CCSCCn1cc(NC(=O)c2cc3ccccc3cn2)cc1C(=O)Nc1cc(C(=O)Nc2ccc3cnccc3c2)n(C)c1 [Ib-73]	+++ (+++ = MIC ≦ 4)	+++ (+++ = MIC ≦ 4)	+++ (+++ = MIC ≦ 4)	+++ (+++ = MIC ≦ 4)
Cn1cc(NC(=O)c2cc(NC(=O)c3cc(NC(=O)c4cc5ccccc5cn4)cn3C)cn2CCN2CCOCC2)cc1C(=O)NCCN1CCOCC1 [Ib-57]	+++ (+++ = MIC ≦ 4)	+++ (+++ = MIC ≦ 4)	+++ (+++ = MIC ≦ 4)	+++ (+++ = MIC ≦ 4)
Cn1cc(NC(=O)c2cc(NC(=O)c3cc(NC(=O)c4sc5cc([N+](=O)[O-])ccc5c4Cl)cn3C)cn2C)cc1C(=O)NCCN1CCOCC1 [Ib-20j]	+++ (+++ = MIC ≦ 4)	+++ (+++ = MIC ≦ 4)	+++ (+++ = MIC ≦ 4)	+++ (+++ = MIC ≦ 4)
Cn1cc(NC(=O)c2cc(NC(=O)c3cc(NC(=O)c4sc5cc6c(cc5c4Cl)OCO6)cn3C)cn2C)cc1C(=O)NCCN1CCSCC1 [Ib-20i]	+++ (+++ = MIC ≦ 4)	+++ (+++ = MIC ≦ 4)	+++ (+++ = MIC ≦ 4)	–
Cn1cc(NC(=O)c2cc(NC(=O)c3cc(NC(=O)c4sc5ccccc5c4Cl)cn3C)cn2C)cc1C(=O)NCC[N+]1(C)CCOCC1 [Ib-20b]	+++ (+++ = MIC ≦ 4)	+++ (+++ = MIC ≦ 4)	+++ (+++ = MIC ≦ 4)	+++ (+++ = MIC ≦ 4)
Cn1cc(NC(=O)c2cc3cc4c(cc3s2)OCO4)cc1C(=O)NCCN1CCOCC1 [Ib-20t]	+++ (+++ = MIC ≦ 4)	+++ (+++ = MIC ≦ 4)	+++ (+++ = MIC ≦ 4)	+++ (+++ = MIC ≦ 4)
CCN(CC)CCNC(=O)c1cc(NC(=O)c2cc(NC(=O)c3cc(NC(=O)c4sc5cc6c(cc5c4Cl)OCO6)cn3C)cn2C)cn1C [Ib-20h]	+++ (+++ = MIC ≦ 4)	+++ (+++ = MIC ≦ 4)	+++ (+++ = MIC ≦ 4)	+++ (+++ = MIC ≦ 4)
Cn1cc(NC(=O)c2cc(NC(=O)c3cc(NC(=O)c4sc5cc6c(cc5c4Cl)OCO6)cn3C)cn2C)cc1C(=O)NCCN1CCCCC1 [Ib-20l]	+++ (+++ = MIC ≦ 4)	+++ (+++ = MIC ≦ 4)	+++ (+++ = MIC ≦ 4)	+++ (+++ = MIC ≦ 4)
Cc1ccc2c(Cl)c(C(=O)Nc3cc(C(=O)Nc4cc(C(=O)Nc5cc(C(=O)NCCN6CCOCC6)n(C)c5)n(C)c4)n(C)c3)sc2c1 [Ib-20c]	+++ (+++ = MIC ≦ 4)	+++ (+++ = MIC ≦ 4)	+++ (+++ = MIC ≦ 4)	+++ (+++ = MIC ≦ 4)
Cn1cc(NC(=O)c2cc(NC(=O)c3cc4cc5c(cc4s3)OCO5)cn2C)cc1C(=O)NCCN1CCOCC1 [Ib-20u]	+++ (+++ = MIC ≦ 4)	+++ (+++ = MIC ≦ 4)	+++ (+++ = MIC ≦ 4)	+++ (+++ = MIC ≦ 4)
Cn1cc(NC(=O)c2cc3ccccc3cn2)cc1C(=O)Nc1cc(C(=O)Nc2cc(C(=O)NCCN3CCOCC3)ns2)n(C)c1 [Ib-52]	+++ (+++ = MIC ≦ 4)	++ (++ = MIC between 4 and 12)	+++ (+++ = MIC ≦ 4)	–
CN(C)c1ccc2c(Cl)c(C(=O)Nc3cc(C(=O)Nc4cc(C(=O)Nc5cc(C(=O)NCCN6CCOCC6)n(C)c5)n(C)c4)n(C)c3)sc2c1 [Ib-20k]	+++ (+++ = MIC ≦ 4)	+++ (+++ = MIC ≦ 4)	>32 µg/mL	–
CCN(CC)CCNC(=O)c1cc(NC(=O)c2cc(NC(=O)c3cc(NC(=O)c4cc5ccccc5cn4)cn3C)cn2C)sn1 [Ib-53]	++ (++ = MIC between 4 and 12)	+ (+ = MIC from 12 to 32, inclusive)	++ (++ = MIC between 4 and 12)	–
Cn1cc(NC(=O)c2cc(NC(=O)c3cc(NC(=O)c4cc5ccccc5cn4)cs3)cn2C)cc1C(=O)NCCN1CCOCC1 [Ib-51]	+++ (+++ = MIC ≦ 4)	+++ (+++ = MIC ≦ 4)	+++ (+++ = MIC ≦ 4)	–
Cn1cc(NC(=O)c2cc3ccccc3cn2)cc1C(=O)Nc1cc(C(=O)Nc2c[nH]c(C(=O)NCCN3CCSCC3)c2)n(C)c1 [Ib-54]	+ (+ = MIC from 12 to 32, inclusive)	+ (+ = MIC from 12 to 32, inclusive)	++ (++ = MIC between 4 and 12)	–
Cn1cc(NC(=O)c2cc3ccccc3cn2)cc1C(=O)Nc1cc(C(=O)Nc2ccc3sc(C(=O)NCCN4CCOCC4)cc3c2)n(C)c1 [Id-1]	–	–	>32 µg/mL	–
